{"source": "patent US12280040B2", "about": "“Compositions and methods of a dihydroisoxazole compound that reduces ectoparasite infestations on fish” (EVAH Atlantic Inc., priority 2023, dated 2025)", "key": {"[1]": {"system": "Lepeophtheirus salmonis", "assay": "Duration of efficacy: medicated feed, then sea lice infestation of Atlantic salmon at 8 or 17 DPT (Example 2)", "assay_type": "in vivo", "settings": "for percent efficacy for total sea lice, across counts: cohort infested at 8 DPT", "description": "A randomized, blinded, parallel-group, negative-controlled study was conducted in which, the active ingredient was administered to Atlantic salmon at three dose rate (0 mg/kg/day, 0.025 mg/kg/day, and 0.060 mg/kg/day administered in medicated feed for 7 consecutive days. Following the treatment, the fish were intentionally infested with sea lice either 8 or 17 DPT, all within a controlled laboratory environment with seawater. The evaluation of efficacy for each cohort occurred at three specific timepoints post-infestation by comparing lice counts between the groups that received treatment and the untreated control groups.\nHealthy Atlantic salmon post-smolts (n=1080) were selected for enrollment and distributed sequentially across eighteen (18) study tanks. Fish were weighed individually during the allocation of fish to tanks on study day (SD) −55&−56. Fish were weighed again on SD −19 to estimate the average weight of all fish and used to determine the feeding amount during the treatment period (SD 0−+6). The mean weight of fish prior to treatment was 716.1±152.5 g. Fish in the cohort infested 8 DPT were additionally weighed on SD +8, +14, +27, +35, +41 and +48. Fish in the cohort infested 17 DPT were additionally weighed on SD +8, +23, +36, +44, +50, and +57. For both cohorts SD 0 served as the first day of treatment.\nAtlantic salmon post-smolts at each infestation time (8 or 17 DPT) were infested once with about 100 copepodids (Lepeophtheirus salmonis) per fish. During the study the water temperature varied between 9 and 13° C., and the water oxygen saturation was above 80%.\nThree treatment groups were randomly assigned to eighteen study tanks by blocking the paired tank rows for the 8 and 17 DPT exposure. Study personnel were blinded as to the identity of the treatments for each tank.\nSea lice were counted three times during the study. […] The counts were strategically scheduled to ensure the presence of life stages, including chalimus, pre-adult, and adult stages, in at least one of the three counts within the negative control treatment. At all timepoints 10 fish were euthanized and lice counted.\nMedicated feed was prepared by dry coating commercially available fish feed pellets with a premix containing the active ingredient to reach a content of about 4.2 and 10.0 mg/kg. The fish pellets were then coated with feed grade herring fish oil at an inclusion rate of about 0.75% w/w (7.5 g/kg feed) The consumption rate of the medicated feed was set to 0.6% body weight.\nFor the cohort infested at 8 DPT and the cohort infested at 17 DPT, treatment efficacy was computed for total number of sea lice/fish and total number of mobile life stages, i.e., preadult & adult sea lice/fish for each sea lice counting occasion (Count I, II & III). For the total number of attached/fish, treatment efficacy was computed at Count I only. Percent efficacy was computed using Abbott's formula for each treatment group compared to control as follows: percent efficacy=100*(MC−MT)/MC, where MC and MT are the arithmetic means of sea lice counts in the untreated control and S-roxapin-treated groups, respectively.\nTreatments were considered efficacious when the percent efficacy was ≥90% for treated groups compared to untreated control groups. The mean sea lice abundance was reported for different parasite life stages (attached, mobile, and total (attached and mobile together)) and computed as the number of lice on salmon divided by the number of sampled fish per tank. The attached category included chalimus I & II stages. The mobile category included pre-adult and adult life stages of both males and females. The numbers of mobile, attached, and total lice were considered in this study."}, "[2]": {"system": "sea lice", "assay": "First set of experiments: medicated feed over 7 consecutive days to salmon, sea lice infestation", "assay_type": "in vivo", "settings": "all dose rates 0.050, 0.125, 0.250 mg/kg/d in medicated feed over 7 consecutive days to salmon", "description": "The inventors conducted a first set of experiments with administration in medicated feed over 7 consecutive days to salmon of 0.050, 0.125, 0.250 mg/kg/d to determine a non-therapeutic dosage for control or treatment of sea lice infestation. As these lower dosages represented a large reduction in concentration to that described in U.S. Pat. No. 9,920,037 (1.0 mg/kg/d) and, as well, represented concentrations well below the dosage for related IOB products for dogs, cats and poultry approved between 2014 and 2021 by such regulatory authorities as the U.S. Food and Drug Administration, Health Canada, and the European Medicines Agency, it was reasonable to expect to find a non-therapeutic dosage at the lower dosages tested."}, "[3]": {"system": "Lepeophtherius salmonis", "settings": "1.0 mg/kg/d in medicated feed to Atlantic salmon for 7 consecutive days; lice counted 10 days after end of treatment; cited from earlier work"}, "[4]": {"settings": "0.025 mg/kg/day in feed 7 d, infested 8 DPT, Count I (21DPI)"}, "[5]": {"settings": "0.025 mg/kg/day in feed 7 d, infested 8 DPT, Count III (34 DPI)"}, "[6]": {"settings": "0.025 mg/kg/day in feed 7 d, infested 17 DPT, Count I (21DPI)"}, "[7]": {"settings": "0.025 mg/kg/day in feed 7 d, infested 17 DPT, Count III (34 DPI)"}, "[8]": {"settings": "0.060 mg/kg/day in feed 7 d, infested 8 DPT, Count I (21DPI)"}, "[9]": {"settings": "0.060 mg/kg/day in feed 7 d, infested 8 DPT, Count III (34 DPI)"}, "[10]": {"settings": "0.060 mg/kg/day in feed 7 d, infested 17 DPT, Count I (21DPI)"}, "[11]": {"settings": "0.060 mg/kg/day in feed 7 d, infested 17 DPT, Count III (34 DPI)"}}, "data": [{"smiles": "C#CCNC(=O)CNC(=O)c1sc(C2=NO[C@@](c3cc(Cl)c(Cl)c(Cl)c3)(C(F)(F)F)C2)cc1C", "note": "[S-roxapin, (S)-3-methyl-N-(2-oxo-2-(prop-2-yn-1-ylamino)ethyl)-5-(5-(3,4,5-trichlorophenyl)-5-(trifluoromethyl)-4,5-dihydroisoxazol-3-yl)thiophene-2-carboxamide]", "values": [{"measurement": "Number of Attached Lice/Fish % Efficacy", "setting": "[1]; [4]", "result": 92.5, "unit": "%"}, {"measurement": "Number of Attached Lice/Fish Mean ± SD", "setting": "[1]; [4]", "result": "1.6 ± 2.0", "unit": "lice/fish"}, {"measurement": "Number of Mobile Lice/Fish % Efficacy", "setting": "[1]; [4]", "result": 87.2, "unit": "%"}, {"measurement": "Number of Mobile Lice/Fish Mean ± SD", "setting": "[1]; [4]", "result": "1.0 ± 1.3", "unit": "lice/fish"}, {"measurement": "Total Number of Lice/Fish % Efficacy", "setting": "[1]; [4]", "result": 91.1, "unit": "%"}, {"measurement": "Total Number of Lice/Fish Mean ± SD", "setting": "[1]; [4]", "result": "2.6 ± 2.9", "unit": "lice/fish"}, {"measurement": "Number of Attached Lice/Fish Mean ± SD", "setting": "[1]; [5]", "result": "0.0 ± 0.0", "unit": "lice/fish"}, {"measurement": "Number of Mobile Lice/Fish % Efficacy", "setting": "[1]; [5]", "result": 91.8, "unit": "%"}, {"measurement": "Number of Mobile Lice/Fish Mean ± SD", "setting": "[1]; [5]", "result": "2.5 ± 2.8", "unit": "lice/fish"}, {"measurement": "Total Number of Lice/Fish % Efficacy", "setting": "[1]; [5]", "result": 91.8, "unit": "%"}, {"measurement": "Total Number of Lice/Fish Mean ± SD", "setting": "[1]; [5]", "result": "2.5 ± 2.8", "unit": "lice/fish"}, {"measurement": "Number of Attached Lice/Fish % Efficacy", "setting": "[1]; [6]", "result": 21.2, "unit": "%"}, {"measurement": "Number of Attached Lice/Fish Mean ± SD", "setting": "[1]; [6]", "result": "2.7 ± 1.9", "unit": "lice/fish"}, {"measurement": "Number of Mobile Lice/Fish % Efficacy", "setting": "[1]; [6]", "result": "−10.1", "unit": "%"}, {"measurement": "Number of Mobile Lice/Fish Mean ± SD", "setting": "[1]; [6]", "result": "24.4 ± 8.8", "unit": "lice/fish"}, {"measurement": "Total Number of Lice/Fish % Efficacy", "setting": "[1]; [6]", "result": "−5.9", "unit": "%"}, {"measurement": "Total Number of Lice/Fish Mean ± SD", "setting": "[1]; [6]", "result": "27.1 ± 9.0", "unit": "lice/fish"}, {"measurement": "Number of Attached Lice/Fish Mean ± SD", "setting": "[1]; [7]", "result": "0.0 ± 0.0", "unit": "lice/fish"}, {"measurement": "Number of Mobile Lice/Fish % Efficacy", "setting": "[1]; [7]", "result": "−16.2", "unit": "%"}, {"measurement": "Number of Mobile Lice/Fish Mean ± SD", "setting": "[1]; [7]", "result": "32.1 ± 12.1", "unit": "lice/fish"}, {"measurement": "Total Number of Lice/Fish % Efficacy", "setting": "[1]; [7]", "result": "−16.0", "unit": "%"}, {"measurement": "Total Number of Lice/Fish Mean ± SD", "setting": "[1]; [7]", "result": "32.1 ± 12.1", "unit": "lice/fish"}, {"measurement": "percent efficacy for total sea lice, across counts", "setting": "[1]; 0.025 mg/kg/day", "result": "above 86.8%"}, {"measurement": "efficacy for mobile lice", "setting": "[1]; 0.025 mg/kg/day, cohort infested at 17 DPT", "result": "no efficacy"}, {"measurement": "efficacy for total sea lice", "setting": "[1]; 0.025 mg/kg/day, cohort infested at 17 DPT (printed: in DOE14)", "result": "No efficacy"}, {"measurement": "Number of Attached Lice/Fish % Efficacy", "setting": "[1]; [8]", "result": 99.8, "unit": "%"}, {"measurement": "Number of Attached Lice/Fish Mean ± SD", "setting": "[1]; [8]", "result": "0.0 ± 0.2", "unit": "lice/fish"}, {"measurement": "Number of Mobile Lice/Fish % Efficacy", "setting": "[1]; [8]", "result": 99.6, "unit": "%"}, {"measurement": "Number of Mobile Lice/Fish Mean ± SD", "setting": "[1]; [8]", "result": "0.0 ± 0.2", "unit": "lice/fish"}, {"measurement": "Total Number of Lice/Fish % Efficacy", "setting": "[1]; [8]", "result": 99.8, "unit": "%"}, {"measurement": "Total Number of Lice/Fish Mean ± SD", "setting": "[1]; [8]", "result": "0.1 ± 0.3", "unit": "lice/fish"}, {"measurement": "Number of Attached Lice/Fish Mean ± SD", "setting": "[1]; [9]", "result": "0.0 ± 0.0", "unit": "lice/fish"}, {"measurement": "Number of Mobile Lice/Fish % Efficacy", "setting": "[1]; [9]", "result": 100, "unit": "%"}, {"measurement": "Number of Mobile Lice/Fish Mean ± SD", "setting": "[1]; [9]", "result": "0.0 ± 0.0", "unit": "lice/fish"}, {"measurement": "Total Number of Lice/Fish % Efficacy", "setting": "[1]; [9]", "result": 100, "unit": "%"}, {"measurement": "Total Number of Lice/Fish Mean ± SD", "setting": "[1]; [9]", "result": "0.0 ± 0.0", "unit": "lice/fish"}, {"measurement": "Number of Attached Lice/Fish % Efficacy", "setting": "[1]; [10]", "result": 46.2, "unit": "%"}, {"measurement": "Number of Attached Lice/Fish Mean ± SD", "setting": "[1]; [10]", "result": "1.9 ± 1.6", "unit": "lice/fish"}, {"measurement": "Number of Mobile Lice/Fish % Efficacy", "setting": "[1]; [10]", "result": 18.5, "unit": "%"}, {"measurement": "Number of Mobile Lice/Fish Mean ± SD", "setting": "[1]; [10]", "result": "18.0 ± 6.1", "unit": "lice/fish"}, {"measurement": "Total Number of Lice/Fish % Efficacy", "setting": "[1]; [10]", "result": 22.3, "unit": "%"}, {"measurement": "Total Number of Lice/Fish Mean ± SD", "setting": "[1]; [10]", "result": "19.9 ± 6.1", "unit": "lice/fish"}, {"measurement": "Number of Attached Lice/Fish Mean ± SD", "setting": "[1]; [11]", "result": "0.0 ± 0.0", "unit": "lice/fish"}, {"measurement": "Number of Mobile Lice/Fish % Efficacy", "setting": "[1]; [11]", "result": 23.0, "unit": "%"}, {"measurement": "Number of Mobile Lice/Fish Mean ± SD", "setting": "[1]; [11]", "result": "21.3 ± 9.0", "unit": "lice/fish"}, {"measurement": "Total Number of Lice/Fish % Efficacy", "setting": "[1]; [11]", "result": 23.1, "unit": "%"}, {"measurement": "Total Number of Lice/Fish Mean ± SD", "setting": "[1]; [11]", "result": "21.3 ± 9.0", "unit": "lice/fish"}, {"measurement": "percent efficacy for total sea lice, across counts", "setting": "[1]; 0.060 mg/kg/day", "result": "above 99.2%"}, {"measurement": "effectiveness in reducing sea lice burdens", "setting": "[2]", "result": "~100", "unit": "%"}, {"measurement": "efficacy against chalimus and pre-adult/adult stages of the sea louse", "setting": "[3]", "result": 100, "unit": "%"}]}]}
